Patent US9334273B1, “Efficient and stereoselective synthesis of 2′-fluoro-6′-methylene-carbocyclic adenosine (FMCA)” (UNIVERSITY OF GEORGIA RESEARCH FOUNDATION, INC., priority 2014, dated 2016)

Key:
[1] = test system: entecavir resistant triple mutant (L180M+M204V+S202G) HBV; conditions: cited from earlier work; for EC50: in vitro, entecavir resistant triple mutant (L180M+M204V+S202G)
[2] = test system: HBV wild type as well as resistant mutants; conditions: both wild type as well as resistant mutants; cited from earlier work

Row | Compound | melting point | EC50 [1] | anti-HBV efficacy [2] | fold less effective against the mutant in comparison to wild type ([1]; triple mutant (L180M+M204V+S202G) vs wild type)
1 | C=C1[C@@H](n2cnc3c(N)ncnc32)C(F)C(O)[C@H]1CO (single isomer, unassigned; (+)) [FMCA, (+)-9-[(1′R, 2′R, 3′R, 4′R)-2′-Fluoro-3′-hydroxy-4′-(hydroxymethyl)-5′-methylenecyclo-pentan-1′-yl]-adenine] | 215 to 218 °C (dec.) | 670 nM | demonstrated the anti-HBV efficacy | 
2 | C=C1C(COP(=O)(N[C@@H](C)C(=O)OC)Oc2ccccc2)C(O)C(F)C1n1cnc2c(N)ncnc21 (stereo partly drawn) [FMCAP] |  | 54 nM | demonstrated the anti-HBV efficacy | 
3 | C=C1[C@H](CO)[C@@H](O)C[C@@H]1n1cnc2c(=O)[nH]c(N)nc21 [entecavir, reference compound] |  |  |  | 150 fold
